# Results from patent US12239645B2, “Targeted dosing for the treatment of complement mediated disorders” (Achillion Pharmaceuticals, Inc., priority 2018, dated 2025).
# Legend:
# [1] = Compound 2 administered to humans (diurnal metabolic pattern); assay type: in vivo, human
# Description: This could not have been predicted prior to human administration of the drug.
# [2] = system: complement alternative pathway (AP) activity; experiment: MAD study: ex vivo serum AP hemolysis activity and PK-PD analysis; assay type: in vivo, human; details: Homo sapiens; sigmoidal model, multiple ascending dose, ex-vivo AP hemolysis, FIG. 12; read-out: modeled IC90 drug plasma concentration (90% inhibition level)
# Experimental: Ex vivo serum AP hemolysis assays were conducted in 96-well microtiter plates divided into two parts, one for hemolysis and the other for serum background color subtraction. Briefly, a suspension of rabbit red blood cells (RBCs) was centrifuged at 800×g at 4° C. for 3 minutes and the supernatant was removed to get rid of the RBC debris. The RBC cell pellet was re-suspended gently with pre-chilled gelatin veronal buffer (GVB0) containing 10 mM MgEGTA to a density of 5×10^8 cells/mL. Other controls including buffer, spontaneous rabbit RBC lysis, 100% RBC lysis (in water), and normal serum control were set up alongside the test samples as well. Serum was placed in a 37° C. water-bath until mostly thawed and immediately transferred to ice bath. 20% serum was prepared with GVB0-MgEGTA buffer and kept at ice bath before testing. Reactions were carried out in a 96 well plate by mixing 50 μl of 20% serum with equal volume of GVB0-MgEGTA buffer and then quickly adding 20 μl of RBC suspension. The plate was shaken on a microtiter plate shaker for 5 seconds and then incubated at 37° C. for 30 minutes. Halfway during the incubation period, the plate was shaken for another 5 seconds as described above. At the end of the incubation, the plate was centrifuged at 800×g at 4° C. for 3 minutes to pellet the un-lysed rabbit RBCs. 80 μl of supernatant was removed carefully from all wells and transferred to a clear flat-bottom microtiter plate for the measurement of optical absorbance at 405 nm (A405) in a Molecular Devices Spectramax Plus plate reader. AP hemolysis in each well was calculated relative to the activity of the NHS reference sample formulas as follows: Hemolysis (%)=((Hm−Bk)−(Sp−Bf))/((NH−BkNH)−(Sp−Bf))×100%
# where Hm=A405 in the hemolysis well, Bk=A405 in the corresponding background well, Sp=mean A405 in the spontaneous hemolysis wells, Bf=mean A405 in the buffer alone wells, NH=mean A405 in the reference NHS wells, and BkNH=mean A405 in the corresponding background wells.
# The PK-PD relationship was evaluated using time-matched plasma Compound 1 concentrations and serum AP inhibition values by non-linear regression with GraphPad Prism (La Jolla, CA) using the following two models: • 1. The simple Emax model to determine the 50% effective concentration (EC50): Y=E0+Emax×X/(EC50+X) where X=plasma Compound 1 concentration, Y=percent inhibition in the corresponding serum sample, E0=0% inhibition (pre-dose AP activity), and Emax=100% inhibition. • 2. The four-parameter sigmoidal model to determine EC50 and the 90% effective concentration (EC90): Y=E0+(Emax−E0)/(1+10^((Log EC50−X)×HillSlope)) where X, Y, E0, and Emax are defined as above (Emax model) and HillSlope=the slope factor or Hill slope. Pharmacodynamic and Pharmacokinetic Results AP Activity Measured with AP Hemolysis
# A multiple ascending dose (MAD) study of Compound 1 with two additional single-dose cohorts was also completed. […] Secondary objectives included evaluation of the pharmacokinetic (PK) profile and the relationship between Compound 1 PK and pharmacodynamic (PD) characteristics, that is, the inhibition of complement alternative pathway (AP) activity (PK/PD). In the MAD study, multiple-dose pharmacokinetics and pharmacodynamics of Compound 1 were evaluated in four dose groups administered Compound 1 (40, 80, 120 and 200 mg BID) in the fasted state for 14-days (Table 3). Eight subjects received active drug in each group; eight subjects received placebo in the first dose group (40 mg) and two subjects received placebo in each of the other three dose groups. Two additional cohorts were administered Compound 1 at single doses of 240 mg (fasted subjects) and 120 mg (fed subjects) (Table 3). The two single-dose cohorts each comprised six subjects receiving active drug and two subjects receiving placebo. […]
SMILES,diurnal metabolic pattern [1],IC90 [2]
"CC(=O)c1nn(CC(=O)N2C[C@H](F)C[C@H]2C(=O)Nc2cccc(Br)n2)c2ccc(-c3cnc(C)nc3)cc12 [Compound 2, (2S,4R)-1-(2-(3-acetyl-5-(2-methylpyrimidin-5-yl)-1H-indazol-1-yl)acetyl)-N-(6-bromopyridin-2-yl)-4-fluoropyrrolidine-2-carboxamide]",does not exhibit a diurnal metabolic pattern,
"CC(=O)c1nn(CC(=O)N2C[C@H](F)C[C@H]2C(=O)Nc2cccc(Br)n2)c2ccc(-c3cnc(C)nc3)cc12 [Danicopan, reference compound]",,0.235 µg/mL
